Assay results reported in patent publication US9212182B2, “Bicyclic sulfonamide compounds as sodium channel inhibitors” (AMGEN INC., priority 2013, dated 2015).

Biological target: Nav 1.7 (Homo sapiens (Human), UniProt Q15858)
Test: in-vitro Nav 1.7 PX (IC50)
Type: cell-based
Conditions: not given

Sequence of Nav 1.7 (Q15858 whole entry): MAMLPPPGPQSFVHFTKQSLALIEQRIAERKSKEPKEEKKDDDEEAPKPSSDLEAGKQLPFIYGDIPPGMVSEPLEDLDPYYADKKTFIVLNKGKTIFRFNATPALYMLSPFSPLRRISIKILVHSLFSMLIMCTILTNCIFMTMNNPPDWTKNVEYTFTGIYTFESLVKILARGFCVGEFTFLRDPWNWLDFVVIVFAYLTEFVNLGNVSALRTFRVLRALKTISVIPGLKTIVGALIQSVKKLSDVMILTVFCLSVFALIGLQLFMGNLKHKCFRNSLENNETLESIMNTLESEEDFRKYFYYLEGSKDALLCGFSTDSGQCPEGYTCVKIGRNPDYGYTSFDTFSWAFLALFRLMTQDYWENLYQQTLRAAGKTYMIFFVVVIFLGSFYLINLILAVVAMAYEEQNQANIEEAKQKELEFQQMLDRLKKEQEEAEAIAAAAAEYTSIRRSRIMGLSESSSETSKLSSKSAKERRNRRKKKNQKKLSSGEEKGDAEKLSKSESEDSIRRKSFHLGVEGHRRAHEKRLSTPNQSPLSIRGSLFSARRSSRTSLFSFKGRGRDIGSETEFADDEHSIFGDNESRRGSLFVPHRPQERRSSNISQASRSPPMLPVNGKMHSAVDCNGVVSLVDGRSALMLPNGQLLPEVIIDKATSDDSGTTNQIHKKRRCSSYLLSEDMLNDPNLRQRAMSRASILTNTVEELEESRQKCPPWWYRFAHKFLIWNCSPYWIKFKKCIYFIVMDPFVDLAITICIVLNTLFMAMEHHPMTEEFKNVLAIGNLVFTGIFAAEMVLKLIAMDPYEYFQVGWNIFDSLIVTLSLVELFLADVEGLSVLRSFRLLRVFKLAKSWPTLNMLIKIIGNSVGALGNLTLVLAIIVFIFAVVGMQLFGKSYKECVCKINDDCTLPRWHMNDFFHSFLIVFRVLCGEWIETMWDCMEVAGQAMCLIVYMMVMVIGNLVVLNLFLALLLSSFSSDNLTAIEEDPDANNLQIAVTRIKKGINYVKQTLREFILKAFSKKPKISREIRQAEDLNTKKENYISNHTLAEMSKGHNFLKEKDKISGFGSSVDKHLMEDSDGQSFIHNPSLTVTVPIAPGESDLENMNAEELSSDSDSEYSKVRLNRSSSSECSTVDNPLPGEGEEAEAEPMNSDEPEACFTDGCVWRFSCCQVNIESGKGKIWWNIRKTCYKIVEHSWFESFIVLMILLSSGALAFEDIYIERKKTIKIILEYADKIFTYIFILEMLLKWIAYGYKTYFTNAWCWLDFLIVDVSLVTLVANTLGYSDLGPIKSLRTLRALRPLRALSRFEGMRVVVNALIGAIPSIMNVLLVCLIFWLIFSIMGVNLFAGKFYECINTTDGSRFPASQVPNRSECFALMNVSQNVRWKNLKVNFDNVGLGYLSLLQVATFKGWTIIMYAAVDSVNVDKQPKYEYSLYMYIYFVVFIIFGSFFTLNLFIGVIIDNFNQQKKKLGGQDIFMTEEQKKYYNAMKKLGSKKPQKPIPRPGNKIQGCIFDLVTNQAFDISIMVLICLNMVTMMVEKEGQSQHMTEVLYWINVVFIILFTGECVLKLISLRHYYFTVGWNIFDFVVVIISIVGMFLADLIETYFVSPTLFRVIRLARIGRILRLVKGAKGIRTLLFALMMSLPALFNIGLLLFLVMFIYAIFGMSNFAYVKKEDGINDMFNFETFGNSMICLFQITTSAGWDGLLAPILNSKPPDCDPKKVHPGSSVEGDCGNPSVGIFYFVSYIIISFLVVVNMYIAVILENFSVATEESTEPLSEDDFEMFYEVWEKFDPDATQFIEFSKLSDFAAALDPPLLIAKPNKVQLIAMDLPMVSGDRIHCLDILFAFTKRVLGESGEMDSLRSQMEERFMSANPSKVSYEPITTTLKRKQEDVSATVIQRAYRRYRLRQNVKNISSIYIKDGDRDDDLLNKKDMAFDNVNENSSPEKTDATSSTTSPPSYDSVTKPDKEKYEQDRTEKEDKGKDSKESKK

IC50 [nM]	SMILES
93	COc1cc(-c2cccc(OC(F)F)c2)c(F)cc1-n1c(=O)cnc2cc(S(=O)(=O)Nc3ccon3)ccc21 [Example 1193, 1-(3′-(difluoromethoxy)-2-fluoro-5-methoxy-4-biphenylyl)-N-3-isoxazolyl-2-oxo-1,2-dihydro-6-quinoxalinesulfonamide]
127	COc1cc(-c2ccc(Cl)c(C)c2)ccc1-n1c(=O)cnc2cc(S(=O)(=O)Nc3ncccn3)ccc21 [Example 1199, 1-(4′-chloro-3-methoxy-3′-methyl-4-biphenylyl)-2-oxo-N-2-pyrimidinyl-1,2-dihydro-6-quinoxalinesulfonamide]
472	COc1nc(C2CC2)c(Cl)cc1-n1c(=O)ccc2cc(S(=O)(=O)Nc3ccon3)ccc21 (atropisomer, axis not shown; (P)) [Example 1230, (P)-1-(5-chloro-6-cyclopropyl-2-methoxy-3-pyridinyl)-N-3-isoxazolyl-2-oxo-1,2-dihydro-6-quinolinesulfonamide]
75	COc1cc(-c2cccc(C(F)(F)F)c2)c(F)cc1-n1c(=O)ccc2cc(S(=O)(=O)Nc3cccc(F)n3)ccc21 (atropisomer, axis not shown; (P)) [Example 1209, (P)-1-(2-fluoro-5-methoxy-3′-(trifluoromethyl)-4-biphenylyl)-N-(6-fluoro-2-pyridinyl)-2-oxo-1,2-dihydro-6-quinolinesulfonamide]
27100	COc1ccc(-c2cnn(C)c2)cc1-n1c(=O)ccc2cc(S(=O)(=O)Nc3ccon3)ccc21 [Example 486, N-3-isoxazolyl-1-(2-methoxy-5-(1-methyl-1H-pyrazol-4-yl)phenyl)-2-oxo-1,2-dihydro-6-quinolinesulfonamide]
79	COc1cc(C#CC2CCCC2)c(F)cc1-n1c(=O)cnc2cc(S(=O)(=O)Nc3ccon3)ccc21 [Example 1142, 1-(4-(cyclopentylethynyl)-5-fluoro-2-methoxyphenyl)-N-3-isoxazolyl-2-oxo-1,2-dihydro-6-quinoxalinesulfonamide]

Same assay, conditions: in-vitro Nav 1.7 PX data

SMILES	IC50 [nM]
COc1cc(-c2cccnc2C)c(F)cc1-n1c(=O)ccc2cc(S(=O)(=O)Nc3ccon3)ccc21 [Example 737, 1-(5-fluoro-2-methoxy-4-(2-methyl-3-pyridinyl)phenyl)-N-3-isoxazolyl-2-oxo-1,2-dihydro-6-quinolinesulfonamide]	1250
COc1cc(-c2ccc(F)cc2)c(F)cc1-n1c(=O)ccc2cc(S(=O)(=O)Nc3cc(C)ncn3)ccc21 [Example 772, 1-(2,4′-difluoro-5-methoxy-4-biphenylyl)-N-(6-methyl-4-pyrimidinyl)-2-oxo-1,2-dihydro-6-quinolinesulfonamide]	232
COc1cc(-c2cc(C)cc(C)c2)c(F)cc1-n1c(=O)ccc2cc(S(=O)(=O)Nc3ccon3)ccc21 [Example 706, 1-(2-fluoro-5-methoxy-3′,5′-dimethyl-4-biphenylyl)-N-3-isoxazolyl-2-oxo-1,2-dihydro-6-quinolinesulfonamide]	14
COc1cc(-c2ccc(C(F)(F)F)cc2)c(F)cc1-n1c(=O)ccc2cc(S(=O)(=O)Nc3cccnn3)ccc21 [Example 795, 1-(2-fluoro-5-methoxy-4′-(trifluoromethyl)-4-biphenylyl)-2-oxo-N-3-pyridazinyl-1,2-dihydro-6-quinolinesulfonamide]	31
COc1cc(-c2cc(C)cnc2OC)c(F)cc1-n1c(=O)ccc2cc(S(=O)(=O)Nc3ccon3)ccc21 [Example 715, 1-(5-fluoro-2-methoxy-4-(2-methoxy-5-methyl-3-pyridinyl)phenyl)-N-3-isoxazolyl-2-oxo-1,2-dihydro-6-quinolinesulfonamide]	151
COc1ccc(-c2cc(F)cc(Cl)c2)cc1-n1c(=O)ccc2cc(S(=O)(=O)Nc3cnccn3)ccc21 [Example 860, 1-(3′-chloro-5′-fluoro-4-methoxy-3-biphenylyl)-2-oxo-N-2-pyrazinyl-1,2-dihydro-6-quinolinesulfonamide]	251
COc1cc(-c2cccc(F)c2)ccc1-n1c(=O)ccc2cc(S(=O)(=O)Nc3ccon3)ccc21 [Example 818, 1-(3′-fluoro-3-methoxy-4-biphenylyl)-N-3-isoxazolyl-2-oxo-1,2-dihydro-6-quinolinesulfonamide]	38
COc1cc(-c2ccc(Cl)c(C)c2)c(F)cc1-n1c(=O)ccc2cc(S(=O)(=O)Nc3ncco3)ccc21 (atropisomer, axis not shown; (P)) [Example 694, (P)-1-(4′-chloro-2-fluoro-5-methoxy-3′-methyl-4-biphenylyl)-N-1,3-oxazol-2-yl-2-oxo-1,2-dihydro-6-quinolinesulfonamide]	27
COc1cc(-c2cc(OC)c(-n3c(=O)ccc4cc(S(=O)(=O)Nc5ccon5)ccc43)cc2F)ccc1Cl [Example 700, 1-(4′-chloro-2-fluoro-3′,5-dimethoxy-4-biphenylyl)-N-3-isoxazolyl-2-oxo-1,2-dihydro-6-quinolinesulfonamide]	5
COc1cc(-c2cnc(F)c(C)c2)c(F)cc1-n1c(=O)ccc2cc(S(=O)(=O)Nc3ccon3)ccc21 [Example 722, 1-(5-fluoro-4-(6-fluoro-5-methyl-3-pyridinyl)-2-methoxyphenyl)-N-3-isoxazolyl-2-oxo-1,2-dihydro-6-quinolinesulfonamide]	178
COc1cc(-c2ccc(Cl)cc2C(N)=O)c(F)cc1-n1c(=O)ccc2cc(S(=O)(=O)Nc3ccon3)ccc21 [Example 755, 4-chloro-2′-fluoro-4′-(6-(3-isoxazolylsulfamoyl)-2-oxo-1(2H)-quinolinyl)-5′-methoxy-2-biphenylcarboxamide]	351

The remaining lines, values ahead:

IC50 [nM]	SMILES
44	COc1cc(-c2ccc(Cl)c(C#N)c2)c(F)cc1-n1c(=O)ccc2cc(S(=O)(=O)Nc3cc(C)ncn3)ccc21 [Example 898, 1-(4′-chloro-3′-cyano-2-fluoro-5-methoxy-4-biphenylyl)-N-(6-methyl-4-pyrimidinyl)-2-oxo-1,2-dihydro-6-quinolinesulfonamide]
21	COc1nc(-c2cc(F)cc(F)c2)c(Cl)cc1-n1c(=O)ccc2cc(S(=O)(=O)Nc3ncccn3)ccc21 [Example 1080, 1-(5-chloro-6-(3,5-difluorophenyl)-2-methoxy-3-pyridinyl)-2-oxo-N-2-pyrimidinyl-1,2-dihydro-6-quinolinesulfonamide]
53	COc1cc(-c2ccc(F)c(F)c2)ccc1-n1c(=O)ccc2cc(S(=O)(=O)Nc3ccon3)ccc21 [Example 1014, 1-(3′,4′-difluoro-3-methoxy-4-biphenylyl)-N-3-isoxazolyl-2-oxo-1,2-dihydro-6-quinolinesulfonamide]
69	COc1cc(CC2CCC2)c(F)cc1-n1c(=O)ccc2cc(S(=O)(=O)Nc3ccon3)ccc21 [Example 1078, 1-(4-(cyclobutylmethyl)-5-fluoro-2-methoxyphenyl)-N-3-isoxazolyl-2-oxo-1,2-dihydro-6-quinolinesulfonamide]
51	COc1cc(-c2cccc(C(F)(F)F)c2)ccc1-n1c(=O)ccc2cc(S(=O)(=O)Nc3ccnc(C)n3)ccc21 [Example 947, 1-(3-methoxy-3′-(trifluoromethyl)-4-biphenylyl)-N-(2-methyl-4-pyrimidinyl)-2-oxo-1,2-dihydro-6-quinolinesulfonamide]
11600	COc1ccc(-c2ccc(Cl)c(C)c2)cc1-n1c(=O)ccc2cc(S(=O)(=O)Nc3ccon3)ccc21 [Example 872, 1-(4′-chloro-4-methoxy-3′-methyl-3-biphenylyl)-N-3-isoxazolyl-2-oxo-1,2-dihydro-6-quinolinesulfonamide]
36	COc1cc(-c2cccc(C(F)(F)F)c2)ccc1-n1c(=O)ccc2cc(S(=O)(=O)Nc3cc(C)cnn3)ccc21 [Example 1137, 1-(3-methoxy-3′-(trifluoromethyl)-4-biphenylyl)-N-(5-methyl-3-pyridazinyl)-2-oxo-1,2-dihydro-6-quinolinesulfonamide]
237	COc1cc(C2CCC(F)(F)CC2)c(F)cc1-n1c(=O)ccc2cc(S(=O)(=O)Nc3ccon3)ccc21 [Example 1102, 1-(4-(4,4-difluorocyclohexyl)-5-fluoro-2-methoxyphenyl)-N-3-isoxazolyl-2-oxo-1,2-dihydro-6-quinolinesulfonamide]
26	COc1cc(C#CC2CCCC2)c(F)cc1-n1c(=O)ccc2cc(S(=O)(=O)Nc3ncccn3)ccc21 [Example 1134, 1-(4-(cyclopentylethynyl)-5-fluoro-2-methoxyphenyl)-2-oxo-N-2-pyrimidinyl-1,2-dihydro-6-quinolinesulfonamide]

Same assay, conditions: in-vitro Nav 1.7 PX data (PatchXpress)

IC50 [nM]	SMILES
32	COc1cc(-c2cccc(C)c2Cl)ccc1-n1c(=O)ccc2cc(S(=O)(=O)Nc3ccon3)ccc21 [Example 1059, 1-(2′-chloro-3-methoxy-3′-methyl-4-biphenylyl)-N-3-isoxazolyl-2-oxo-1,2-dihydro-6-quinolinesulfonamide]

Same assay, conditions: in-vitro PatchXpress (PX)

IC50 [nM]	SMILES
1100	COc1cc(-c2ccc(Cl)c(F)c2)c(F)cc1-n1c(=O)ccc2cc(S(=O)(=O)Nc3ccon3)ccc21 (atropisomer, axis not shown; (P)) [Example 503, (P)-1-(4′-chloro-2,3′-difluoro-5-methoxy-4-biphenylyl)-N-3-isoxazolyl-2-oxo-1,2-dihydro-6-quinolinesulfonamide]
115	COc1nc(-c2ccc(Cl)c(C)c2)c(Cl)cc1-n1c(=O)ccc2cc(S(=O)(=O)Nc3ccon3)ccc21 [Example 448, 1-(5-chloro-6-(4-chloro-3-methylphenyl)-2-methoxypyridin-3-yl)-N-(isoxazol-3-yl)-2-oxo-1,2-dihydroquinoline-6-sulfonamide]
60	COc1cc(-c2cncc(Cl)c2)c(F)cc1-n1c(=O)ccc2cc(S(=O)(=O)Nc3ccon3)ccc21 (atropisomer, axis not shown; (M)) [Example 409, (M)-1-(4-(5-chloro-3-pyridinyl)-5-fluoro-2-methoxyphenyl)-N-3-isoxazolyl-2-oxo-1,2-dihydro-6-quinolinesulfonamide]
14600	COc1cc(-c2cnn(C)c2)c(F)cc1-n1c(=O)ccc2cc(S(=O)(=O)Nc3ccon3)ccc21 [Example 405, 1-(5-fluoro-2-methoxy-4-(1-methyl-1H-pyrazol-4-yl)phenyl)-N-3-isoxazolyl-2-oxo-1,2-dihydro-6-quinolinesulfonamide]
